In patent publication US20160030438A1, “ANTI-TUMORAL COMPOSITION COMPRISING A PI3KBETA INHIBITOR AND A RAF INHIBITOR, TO OVERCOME CANCER CELLS RESISTANCE” (SANOFI, priority 2013, published 2016):

Key:
Type in all cases: cell-based
[1] = tested on: human melanoma cell line WM-266-4; assay: In vitro pro-apoptotic activity (PARP cleavage western blot) in WM-266-4, example 2; conditions: 100 nM, positive control, WM-266-4, example 2
Procedure: The characterization of the interaction between compound (I) and compound (II) was studied using western blotting method measuring the expression of cleaved PARP which allows to investigate apoptosis by detecting the cleavage of the PARP protein.
(§1) The human melanoma WM-266-4 cell line was purchased at ATCC (Ref number CRL-1676 Batch 3272826). The WM-266-4 cells were cultured in RPMI1640 medium supplemented with 10% FBS and 2 mM L-Glutamine.
They were diluted following a 10 fold step dilution in DMSO in order to obtain a 1 mM solution. Then each solution at 10 mM and 1 mM was diluted 50-fold in culture medium containing 10% serum before being added onto cells with a 20-fold dilution factor to reach final concentrations of 10,000 nM and 1,000 nM. The final DMSO concentration was 0.1% in controls and in all treated wells.
WM-266-4 cells were seeded into 6-well microplates at 1 000 000 cells per well, in complete culture medium and incubated at 37° C., 5% CO2, overnight.
At the end of cell treatment period, adherent cells as well as cells in the cell culture supernatant were lysed for the preparation of the proteins. Cells were lysed in a lysis buffer containing Hepes 50 mM, NaCl 150 mM, Glycerol 10%, Triton 1%, pH=7.5, adding extemporaneously a cocktail of protease and phosphatase inhibitors diluted 100 fold. Protein concentrations in each sample were determined using microBCA technique according to manufacturer's instructions. Western blotting was performed loading 20 μg of proteins in each gel well, and according to the operating procedure. […] After western blotting revelation according to the operating procedure instructions, luminescence was read using FujiFilm (Ray Test) apparatus.
This instrument measures the total signal of luminescence obtained on Fujifilm machine (AU) for each selected band. Then, it subtracts the background value (BG) proportional to the size of the selected band or Area. The background is calculated from a band taken on the specific background of the western blot, to obtain the specific signal or (AU−BG) for each band. The calculation of the fold induction is performed for each treatment with compound or combination of compounds using the following formula:
Fold Induction=((AU−BG)t/(AU−BG)st)*100

[2] = tested on: human melanoma cell line A2058; assay: In vitro pro-apoptotic activity (PARP cleavage western blot) in A2058, example 4
Procedure: (§2) The characterization of the interaction between compound (I) and compound (II) was studied using western blotting method which allows investigating apoptosis by detecting the cleavage of the PARP protein.
(§3) The human melanoma A2058 cell line was purchased at ATCC (Ref number CRL-11147 Batch 5074651). The A2058 cells were cultured in DMEM High glucose medium supplemented with 10% FBS and 2 mM L-Glutamine.
(§4) Cell treatment, Western Blot experiment and calculation of apoptosis fold induction were performed according to the material and method described in example 2.

[3] = tested on: human melanoma cell line WM-266-4; assay: In vitro pro-apoptotic activity (PARP cleavage) in WM-266-4 in a concentration-dependent manner, example 5; conditions: single agent 100 nM, WM-266-4, example 5
Procedure: as §2, §1
They were diluted following two 10-fold step dilution in DMSO in order to obtain a 1 mM solution and a 0.1 mM solution Then each solution at 10 mM, 1 mM or 0.1 mM was diluted 50-fold in culture medium containing 10% serum before being added onto cells with a 20-fold dilution factor to reach final concentrations of 10,000 nM, 1,000 nM and 100 nM. The final DMSO concentration was 0.1% in controls and in all treated wells.
as §4

[4] = tested on: human melanoma cell line A2058; assay: In vitro pro-apoptotic activity (PARP cleavage) in A2058 in a concentration-dependent manner, example 6; conditions: single agent 100 nM, A2058, example 6
Procedure: as §2, §3, §4

Q: What does the source list for CC(=O)O[C@@]12CO[C@@H]1C[C@H](O)[C@@]1(C)C(=O)[C@H](O)C3=C(C)[C@@H](OC(=O)[C@H](O)[C@@H](NC(=O)OC(C)(C)C)c4ccccc4)C[C@@](O)([C@@H](OC(=O)c4ccccc4)[C@H]21)C3(C)C [Taxotere]?
A: PARP cleavage signal (AU-BG) [1]: 2054900 AU-BG; fold induction at 0.1 µM ([1]; Homo sapiens): 2.88; PARP cleavage signal (AU-BG) ([2]; 100 nM, positive control, A2058, example 4): 3563893 AU-BG; fold induction at 0.1 µM ([2]; Homo sapiens, A2058, read-out: Fold induction of PARP cleavage): 1.66; fold induction at 0.1 µM ([3]; Homo sapiens): 1.56; PARP cleavage signal (AU-BG) [3]: 399272 AU-BG; fold induction at 0.1 µM ([4]; Homo sapiens): 6.79; PARP cleavage signal (AU-BG) [4]: 14448019 AU-BG
